This test is filed under the species Homo sapiens. In words: Binding affinity to His6-tagged/Tb-labelled 14-3-3gamma (unknown origin)/His6-SUMO-tagged/AF647-labelled SLP76 (unknown origin) expressed in Noco21 (DE3) cells assessed as fold change in KD improvement by HTRF assay. (In general: Time-resolved FRET reads energy transfer from a long-lived donor to a nearby acceptor.)

`COc1ccc(C(=O)N2C[C@@H]3CN(CCO3)C(=O)[C@@H]3C[C@@H](CN3Cc3ccc4c(c3)OCO4)NC(=O)C[C@@H]3O[C@H](C2)[C@@H](O)[C@H]3O)cc1`: the fold change (FC) worked out at 3.4.

Consider `Fc1ccc(OCc2nn3c(Cn4cnc5ccccc54)nnc3s2)cc1`, for which the fold change (FC) came out at 3.5. In the case of `CC(C)CNC(=O)c1ccc2c(c1)nc1n2CCN(C(C)C)C1=O`, the fold change (FC) was 5.2. As to `CC(C)N1CC[C@H]2COC(=O)N2c2cc(F)ccc2C1`, the fold change (FC) is 4.1. With `O=C1OC[C@@H]2CCN(Cc3ccccc3)Cc3ccccc3N12`, the fold change (FC) was 3.3.

`CC1=Nn2c(nnc2-c2ccoc2C)SC1`: the fold change (FC) turned out to be 1.4. On to `COc1ccccc1-c1nnc2scnn12`, for which the fold change (FC) worked out at 11.

As for `S=c1[nH]nc(Cn2nnc3ccccc32)o1`, the fold change (FC) was 1.1. As to `O=C(c1ccc(Cl)cc1)n1c(Cn2nnc(-c3cccc4ccccc34)n2)n[nH]c1=S`, the fold change (FC) was found to be 1.8.

Consider `c1cc(-c2nnc3scnn23)ccn1`, for which the fold change (FC) turned out to be 4.4.

In the case of `CC1=CCC2COC(C[N+]3(C)CCCCC3)C1C2` (configuration not stated), the fold change (FC) was found to be 4.7.

For the compound `O=C(Cn1nc(C(F)(F)F)c2c1CCCC2)Nc1ccc(Cl)c(Cl)c1`, the fold change (FC) was found to be 14.6.

(Values after ChEMBL document CHEMBL5136967, “Identification of molecular glues of the SLP76/14-3-3 protein-protein interaction” (RSC Med Chem, 2021).)
